According to ChEMBL document CHEMBL1154700, “3D-QSAR studies on unsaturated 4-azasteroids as human 5alpha-reductase inhibitors: a self organizing molecular field analysis approach” (Eur J Med Chem, 2010):

Organism: Homo sapiens
Experiment: Inhibition of human 5 alpha reductase assessed as -log of ratio of IC50 of drug to the IC50 of reference compound

SMILES	-log(RatioIC50)
CC(C)N(C(=O)[C@H]1CC[C@H]2[C@@H]3CC[C@H]4NC(=O)C=C[C@]4(C)[C@H]3CC[C@]12C)C(C)C	-0.204
CCNC(=O)[C@H]1CC[C@H]2[C@@H]3CC[C@H]4NC(=O)C=C[C@]4(C)[C@H]3CC[C@]12C	-1.18
C[C@]12C=CC(=O)N[C@@H]1CC[C@@H]1[C@@H]2CC[C@]2(C)[C@@H](O)CC[C@@H]12	-2
C[C@]12C=CC(=O)N[C@@H]1CC[C@@H]1[C@@H]2CC[C@]2(C)[C@@H](C(=O)c3ccc[nH]3)CC[C@@H]12	-1
CCN(CC)C(=O)[C@H]1CC[C@H]2[C@@H]3CC[C@H]4NC(=O)C=C[C@]4(C)[C@H]3CC[C@]12C	-0.785
CC(C)N(C(=O)[C@H]1CC[C@H]2[C@@H]3CC=C4N(C)C(=O)C=C[C@]4(C)[C@H]3CC[C@]12C)C(C)C	-1.43
CC(C)(C)CC(C)(C)NC(=O)[C@H]1CC[C@H]2[C@@H]3CC[C@H]4NC(=O)C=C[C@]4(C)[C@H]3CC[C@]12C	-0.079
COC(=O)[C@H]1CC[C@H]2[C@@H]3CC[C@H]4NC(=O)C=C[C@]4(C)[C@H]3CC[C@]12C	-1.56
CN1C(=O)C=C[C@]2(C)[C@H]3CC[C@]4(C)[C@@H](C(=O)c5ccc[nH]5)CC[C@H]4[C@@H]3CC[C@@H]12	-1.52
CC(C)N(C(=O)[C@H]1CC[C@H]2[C@@H]3CC=C4NC(=O)CC[C@]4(C)[C@H]3CC[C@]12C)C(C)C	-0.602
COC(=O)[C@@H](C)[C@H]1CC[C@H]2[C@@H]3CC[C@H]4NC(=O)C=C[C@]4(C)[C@H]3CC[C@]12C	-1.48
CCC(C)C(=O)[C@H]1CC[C@H]2[C@@H]3CC[C@H]4N(C)C(=O)C=C[C@]4(C)[C@H]3CC[C@]12C (stereo partly specified)	-1.7
CC(C)CC(=O)[C@H]1CC[C@H]2[C@@H]3CC[C@H]4N(C)C(=O)C=C[C@]4(C)[C@H]3CC[C@]12C	-1.48
C[C@]12C=CC(=O)N[C@@H]1CC[C@@H]1[C@@H]2CC[C@]2(C)[C@@H](C(N)=O)CC[C@@H]12	-1.92
CCOC(=O)/C=C1\CC[C@H]2[C@@H]3CC=C4N(C)C(=O)CC[C@]4(C)[C@H]3CC[C@]12C	-2
CCN(CC)C(=O)/C=C/[C@H]1CC[C@H]2[C@@H]3CC[C@H]4N(C)C(=O)CC[C@]4(C)[C@H]3CC[C@]12C	-0.301

SMILES	-log(RatioIC50)
CCN(CC)C(=O)[C@H]1CC[C@H]2[C@@H]3CC=C4N(C)C(=O)CC[C@]4(C)[C@H]3CC[C@]12C	-0.653
CCNC(=O)[C@H]1CC[C@H]2[C@@H]3CC[C@H]4N(C)C(=O)C=C[C@]4(C)[C@H]3CC[C@]12C	-2.18
CNC(=O)[C@H]1CC[C@H]2[C@@H]3CC=C4N(C)C(=O)CC[C@]4(C)[C@H]3CC[C@]12C	-1.57
CC(C)N(C(=O)[C@H]1CC[C@H]2[C@@H]3CC=C4N(C)C(=O)CC[C@]4(C)[C@H]3CC[C@]12C)C(C)C	-0.204
CCC(C)C(=O)[C@H]1CC[C@H]2[C@@H]3CC[C@H]4NC(=O)C=C[C@]4(C)[C@H]3CC[C@]12C (stereo partly specified)	-0.881
CN1C(=O)C=C[C@]2(C)[C@H]3CC[C@]4(C)[C@@H](C(=O)NC(C)(C)CC(C)(C)C)CC[C@H]4[C@@H]3CC[C@@H]12	-0.477
CC(C)(C)NC(=O)[C@H]1CC[C@H]2[C@@H]3CC[C@H]4NC(=O)C=C[C@]4(C)[C@H]3CC[C@]12C	0.26
COC(=O)[C@@H](C)[C@H]1CC[C@H]2[C@@H]3CC[C@H]4N(C)C(=O)C=C[C@]4(C)[C@H]3CC[C@]12C	-2.18
CC(C)N(C(=O)[C@H]1CC[C@H]2[C@@H]3CC[C@H]4N(C)C(=O)C=C[C@]4(C)[C@H]3CC[C@]12C)C(C)C	-1
C[C@]12C=CC(=O)N[C@@H]1CC[C@@H]1[C@@H]2CC[C@]2(C)[C@@H](C(=O)Sc3ccccn3)CC[C@@H]12	0
C[C@]12C=CC(=O)N[C@@H]1CC[C@@H]1[C@@H]2CC[C@@]2(C)[C@H]1CC[C@@]21CCCO1	-3
CN1C(=O)C=C[C@]2(C)[C@H]3CC[C@@]4(C)[C@@H](CC[C@@]45CCCO5)[C@@H]3CC[C@@H]12	-3.1
CCN(CC)C(=O)[C@H]1CC[C@H]2[C@@H]3CC[C@H]4N(C)C(=O)C=C[C@]4(C)[C@H]3CC[C@]12C	-1.34
CC(C)CC(=O)[C@H]1CC[C@H]2[C@@H]3CC[C@H]4NC(=O)C=C[C@]4(C)[C@H]3CC[C@]12C	-0.255
CN1C(=O)C=C[C@]2(C)[C@H]3CC[C@]4(C)[C@@H](C(=O)NC(C)(C)C)CC[C@H]4[C@@H]3CC[C@@H]12	-0.778
